Reference: ChEMBL document CHEMBL3045082, “Novel quinazolinone derivatives: synthesis and antimicrobial activity” (2013)
Converted amounts (≈) assume the structure as drawn. The source made the active and inactive calls. The calls are words filed in the database; no cut-off is given here.

Assays:
Aspergillus fumigatus [1] = assay: Antimicrobial activity against Aspergillus fumigatus assessed as growth inhibition after 24 to 48 hr by two-fold serial dilution method; assay type: functional
Staphylococcus aureus [2] = assay: Antimicrobial activity against Staphylococcus aureus ATCC 25923 assessed as growth inhibition after 24 to 48 hr by two-fold serial dilution method; assay type: functional
Pseudomonas fluorescens [3] = assay: Antimicrobial activity against Pseudomonas fluorescens S 97 assessed as growth inhibition after 24 to 48 hr by two-fold serial dilution method; assay type: functional
Pseudomonas fluorescens [4] = assay: Antimicrobial activity against Pseudomonas fluorescens S 97 assessed as diameter of growth inhibition zone at 1 mg/ml after 24 hr by agar diffusion method; assay type: functional; settings: S 97, 24 h, read-out: DIZ
Aspergillus fumigatus [5] = assay: Antimicrobial activity against Aspergillus fumigatus assessed as diameter of growth inhibition zone at 1 mg/ml by agar diffusion method; settings: read-out: DIZ
Fusarium oxysporum [6] = assay: Antimicrobial activity against Fusarium oxysporum assessed as diameter of growth inhibition zone at 1 mg/ml […] by agar diffusion method; assay type: functional; settings: read-out: DIZ
Streptococcus pyogenes [7] = assay: Antimicrobial activity against Streptococcus pyogenes ATCC 19615 assessed as diameter of growth inhibition zone at 1 mg/ml after 24 hr by agar diffusion method; assay type: functional; settings: ATCC 19615, 24 h, read-out: DIZ
Streptococcus pyogenes [8] = assay: Antimicrobial activity against Streptococcus pyogenes ATCC 19615 assessed as growth inhibition after 24 to 48 hr by two-fold serial dilution method; assay type: functional
Staphylococcus aureus [9] = assay: Antimicrobial activity against Staphylococcus aureus ATCC 25923 assessed as diameter of growth inhibition zone at 1 mg/ml after 24 hr by agar diffusion method; assay type: functional; settings: ATCC 25923, 24 h, read-out: DIZ
[10] = system: Pseudomonas savastanoi pv. phaseolicola; assay: Antimicrobial activity against Pseudomonas syringae pv. phaseolicola GSPB 2828 assessed as diameter of growth inhibition zone at 1 mg/ml after 24 hr by agar diffusion method; assay type: functional; settings: GSPB 2828, 24 h, read-out: DIZ
Staphylococcus aureus [11] = assay: Antimicrobial activity against Staphylococcus aureus ATCC 25923 assessed as growth inhibition after 24 to 48 hr by two-fold serial dilution method relative to chloramphenicol; assay type: functional
Streptococcus pyogenes [12] = assay: Antimicrobial activity against Streptococcus pyogenes ATCC 19615 assessed as growth inhibition after 24 to 48 hr by two-fold serial dilution method relative to chloramphenicol; assay type: functional
Staphylococcus aureus [13] = assay: Antimicrobial activity against Staphylococcus aureus ATCC 25923 assessed as growth inhibition after 24 to 48 hr by two-fold serial dilution method relative to cephalothin; assay type: functional
[14] = system: Pseudomonas savastanoi pv. phaseolicola; assay: Antimicrobial activity against Pseudomonas syringae pv. phaseolicola GSPB 2828 assessed as growth inhibition after 24 to 48 hr by two-fold serial dilution method; assay type: functional
Fusarium oxysporum [15] = assay: Antimicrobial activity against Fusarium oxysporum assessed as growth inhibition after 24 to 48 hr by two-fold serial dilution method; assay type: functional

SMILES | MIC (Aspergillus fumigatus [1]) | MIC (Staphylococcus aureus [2]) | MIC (Pseudomonas fluorescens [3]) | MIC (Streptococcus pyogenes [8]) | MIC [14] | zone of inhibition at 1000 µg/mL (Pseudomonas fluorescens [4]) | zone of inhibition at 1000 µg/mL (Aspergillus fumigatus [5]) | zone of inhibition at 1000 µg/mL (Fusarium oxysporum [6]) | zone of inhibition at 1000 µg/mL (Streptococcus pyogenes [7]) | zone of inhibition at 1000 µg/mL (Staphylococcus aureus [9]) | zone of inhibition at 1000 µg/mL [10] | growth inhibition (GI) (Staphylococcus aureus [11]) | growth inhibition (GI) (Streptococcus pyogenes [12]) | growth inhibition (GI) (Staphylococcus aureus [13]) | MIC (Fusarium oxysporum [15])
C[C@@H]1C[C@@H]([C@H](O)CC2CC(=O)NC(=O)C2)C(=O)[C@@H](C)C1 [CYCLOHEXIMIDE] | 3.12 µg/mL (≈ 11.1 µM) | – | – | – | – | – | 42 mm | 43 mm | – | – | – | – | – | – | 3.12 µg/mL (≈ 11.1 µM)
Cc1ccc(S(=O)(=O)Oc2ccc(-c3nc4ccccc4c(=O)n3-n3c(C)nc4ccccc4c3=O)cc2)cc1 | 6.25 µg/mL (≈ 11.4 µM) | 50 µg/mL (≈ 90.8 µM) | 50 µg/mL (≈ 90.8 µM) | – | – | 19 mm | 38 mm | 15 mm | 15 mm | 19 mm | 14 mm | – | – | – | –
Cc1ccc(S(=O)(=O)Oc2ccc(C(=O)Nc3ccccc3-c3nc4ccccc4[nH]3)cc2)cc1 | inactive | 25 µg/mL (≈ 51.7 µM) | – | 25 µg/mL (≈ 51.7 µM) | 50 µg/mL (≈ 103 µM) | 14 mm | – | 15 mm | 25 mm | 25 mm | 19 mm | – | – | – | –
O=C(N[C@H](CO)[C@H](O)c1ccc([N+](=O)[O-])cc1)C(Cl)Cl [CHLORAMPHENICOL] | – | 3.12 µg/mL (≈ 9.67 µM) | 6.25 µg/mL (≈ 19.3 µM) | 3.12 µg/mL (≈ 9.67 µM) | 6.25 µg/mL (≈ 19.3 µM) | 38 mm | – | – | 44 mm | 42 mm | 37 mm | – | – | – | –

Continued, in another order:

MIC (Aspergillus fumigatus [1]) | MIC (Staphylococcus aureus [2]) | MIC (Pseudomonas fluorescens [3]) | MIC (Streptococcus pyogenes [8]) | MIC [14] | SMILES | zone of inhibition at 1000 µg/mL (Pseudomonas fluorescens [4]) | zone of inhibition at 1000 µg/mL (Aspergillus fumigatus [5]) | zone of inhibition at 1000 µg/mL (Fusarium oxysporum [6]) | zone of inhibition at 1000 µg/mL (Streptococcus pyogenes [7]) | zone of inhibition at 1000 µg/mL (Staphylococcus aureus [9]) | zone of inhibition at 1000 µg/mL [10] | growth inhibition (GI) (Staphylococcus aureus [11]) | growth inhibition (GI) (Streptococcus pyogenes [12]) | growth inhibition (GI) (Staphylococcus aureus [13]) | MIC (Fusarium oxysporum [15])
50 µg/mL (≈ 107 µM) | 25 µg/mL (≈ 53.7 µM) | 6.25 µg/mL (≈ 13.4 µM) | 25 µg/mL (≈ 53.7 µM) | – | Cc1ccc(S(=O)(=O)Oc2ccc(-c3nc4ccccc4c4nc5ccccc5n34)cc2)cc1 | 37 mm | 20 mm | 16 mm | 25 mm | 26 mm | 14 mm | – | – | – | –
50 µg/mL (≈ 105 µM) | 6.25 µg/mL (≈ 13.1 µM) | – | 6.25 µg/mL (≈ 13.1 µM) | – | Cc1ccc(S(=O)(=O)Oc2ccc(-c3nc4ccccc4c(=O)n3-c3nccs3)cc2)cc1 | 16 mm | 19 mm | 15 mm | 38 mm | 38 mm | 14 mm | 50% | 50% | – | –
– | 12.5 µg/mL (≈ 21.6 µM) | – | – | 50 µg/mL (≈ 86.4 µM) | Cc1ccc(S(=O)(=O)Oc2ccc(-c3nc4ccccc4c(=O)n3C3=NNC(=O)C3/N=N/c3ccccc3)cc2)cc1 (stereo not drawn) | 16 mm | 16 mm | 31 mm | 14 mm | 32 mm | 20 mm | 25% | – | 50% | 12.5 µg/mL (≈ 21.6 µM)
12.5 µg/mL (≈ 19.4 µM) | 3.12 µg/mL (≈ 4.86 µM) | inactive | 6.25 µg/mL (≈ 9.72 µM) | 50 µg/mL (≈ 77.8 µM) | COc1ccc(C2CC(c3ccc(-n4c(-c5ccc(OS(=O)(=O)c6ccc(C)cc6)cc5)nc5ccccc5c4=O)cc3)=NN2)cc1 (stereo not drawn) | – | 31 mm | 14 mm | 38 mm | 43 mm | 19 mm | – | 50% | – | –
